What was measured:
human Cer1 = biological target: T1, human Cer1 (Homo sapiens, UniProt P27544); conditions: cited from earlier work
T1 sequence (P27544 1-350): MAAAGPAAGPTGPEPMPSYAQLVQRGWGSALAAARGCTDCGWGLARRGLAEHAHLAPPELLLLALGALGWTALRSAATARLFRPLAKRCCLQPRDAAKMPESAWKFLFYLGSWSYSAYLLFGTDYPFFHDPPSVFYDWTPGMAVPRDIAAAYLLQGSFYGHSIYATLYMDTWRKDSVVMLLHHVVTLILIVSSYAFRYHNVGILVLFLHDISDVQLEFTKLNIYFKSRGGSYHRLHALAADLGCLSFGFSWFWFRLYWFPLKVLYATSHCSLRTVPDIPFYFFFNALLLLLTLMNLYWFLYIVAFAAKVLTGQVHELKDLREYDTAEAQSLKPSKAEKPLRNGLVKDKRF

Cer1 = conditions: cited from earlier work
Pma1 = test: Glucose dependent medium acidification (plasma membrane H+-ATPase activity); assay type: cell-based, Cryptococcus neoformans
Protocol: Glucose-dependent medium acidification was monitored by a modification of a procedure described previously (Perlin, Brown et al. 1988, Soteropoulos, Vaz et al. 2000). Cultures of Cn strain WT, Δcer1, Δcer1+CER1, Δgcs1 were grown to mid-log Phase in YPD. The next day, these cells were transferred to DMEM at pH 4.0 and allowed to grow under shaking conditions for 24 hours. These cells were then harvested and washed using 100 mM KCl, pH 5.0. These pellets were then resuspended in 10 ml KCl, pH 5.0 and incubated under shaking condition at 30° C. These samples were then stored at 4° C. overnight prior to use. For the assay, cells were concentrated to a final A590 of approximately 2.0. 20 μl cells along with 155 μl of bromophenolblue (50 μg/ml) in 100 mM KCl, pH 5.0. 20 μl 20% (w/v) glucose was added to initiate the reaction. Medium acidification was monitored at 590 nm over a period of 5 hours (data point every 3 mins) in a microplate reader (SpectraMax M5).

GAL7::IPC1 = test: In vitro growth at 37° C., 5% CO2, pH 4.0; assay type: cell-based, Cryptococcus neoformans; conditions: supplementation

Structure (SMILES)	targets human Cer1 (human Cer1)	known Cer1 inhibitor (Cer1)	Pma1 activity (Pma1; AbA treated Δgcs1 cells, supplementation)	Pma1 efficiency (Pma1; Δcer1 cells upon supplementation)	growth defect of GAL7::IPC1 in acidic conditions (GAL7::IPC1)
CCCCCC[C@@H](C)C1=C(O)C(=O)[C@@H]2[C@H](O)[C@H](C)C[C@H](O)[C@H]2[C@]1(C)C(=O)/C=C\O [Australifungin]	targets human Cer1	known Cer1 inhibitor	–	–	–
CCCCCCCCCCCCC/C=C/[C@@H](O)[C@H](CO)NC(=O)CCCCCCCCCCCCCCCCC [C18 ceramide]	–	–	increases	increase	compensated

Reference: patent US20200171132A1, “METHODS OF INHIBITING FUNGAL CERAMIDE SYNTHASE FOR TREATMENT OF CRYPTOCOCCUS NEOFORMANS INFECTION” (The Research Foundation for the State University of New York, priority 2017, published 2020)
